{
  "source": "patent US20240197761A1",
  "about": "“FUCOSYLATION AND IMMUNE MODULATION IN CANCER” (H. LEE MOFFITT CANCER CENTER AND RESEARCH INSTITUTE, INC., priority 2021, published 2024)",
  "tested_on": "SW1 tumors",
  "experiment": "Control vs. L-fucose ± FTY720 model: tumor growth and flow cytometric profiling of tumors and lymph nodes (Table 1)",
  "assay_type": "in vivo, C3H/HeN mice",
  "protocol": "FIGS. 15A-15E Lymph node egress is necessary for L-fucose-triggered tumor suppression; L-fucose increases intratumoral CD4+T stem and central memory cells. (a) Immune subpopulations markers use to profile by flow cytometry. (b) Volumetric growth curves for SW1 tumors in C3H/HeN mice fed without (Ctl) or with L-fucose (LF) and treated with FTY720 (Ctl mice administered FTY720: (FTY); LF-supplemented mice administered FTY720: (L+F)). FTY720 was administered at 20 μg per mouse every 2 days starting on Day 12, just prior to the initiation of LF (c) Pie charts showing ratios of intratumoral or lymph node-resident CD4+ or CD8+T cell subpopulations, as well as DC subtypes from mice at Day 14, 28, and 42 (each pie chart represents 4-5 mice). Assessment of cytotoxic CD4+ T cell populations (CRTAM+) and cytotoxic CD8+ T cell populations (GrzB+) from tumors at Day 28 (d) and Day 42 (e). The tumor growth curves are means±SEM from ≥7 mice per group. *=p<0.05.\nTumors of SW1 or SM1 melanoma cells from […] or C57BL/6 mice, respectively) were digested using 1× tumor digest buffer (0.5 mg/mL Collagenase I, 0.5 mg/mL Collagenase IV, 0.25 mg/mL Hyalyronidase V, 0.1 mg/mL DNAse I in HBSS (Millipore Sigma (St. Louis, MO)). Tumors were homogenized using the Miltenyi MACs dissociator. Red blood cells were lysed using ACK lysis buffer (Life Technologies, (Grand Island, NY)). Tumor homogenate cells were counted using a standard hemocytometer.\nTotal TILs were gated first to single cells (based on forward scatter height vs width, followed by side scatter height vs. width). Live cells were gated from the Zombie negative population from the population above. TILs were gated based on splenocyte size from a control spleen. Individual immune subpopulations were sub-gated from the total TIL population using the following staining criteria: CD3+ for CD3+ T cells; CD3+/CD4+/CD8− for CD4+T cells; CD3+/CD4−/CD8+ for CD8+ T cells, CD11c+/CD11b+ for DCs; either NK1.1 (for C57/BL6 mice) or DX5 (for C3H/HeJ) for NK cells; CD11b+/GR1+ for MDSC-like cells; and F4/80+ for macrophages. Single-cell suspensions from tumor and spleen tissue were stained with Live/Dead Zombie NIR (Biolegend, (San Diego, CA)) at 1:1,000 in PBS for 20 min. Cell suspensions were spun down and stained with the following with antibodies at 0.5 μg/ml per antibody: APC anti-mouse CD3, Pacific Blue anti-mouse CD4, BV785 anti-mouse CD8, PerCP anti-mouse CD25, FITC anti-mouse F4/80, PeCy7 anti-mouse CD11c, PE anti-mouse NK1.1 or PE anti-mouse DX5, and PerCP-Cy5.5 anti-mouse CD11 b. After staining, the cells were washed and fixed (2% formaldehyde), followed by another wash and flow cytometric analysis. The compensation controls were prepared using 0.5 μg/mL of each antibody with UltraComp eBeads, (ThermoFisher Scientific (Waltham, MA)). All samples were subject to flow cytometric profiling using a LSR Flow Cytometer (BD Biosciences (San Jose, CA)) and analysis as indicated using FlowJo software (BD Biosciences (San Jose, CA)).\nSW1 or SM1 mouse melanoma cells were injected into syngeneic C3H/HeN (or NSG) female or C57BL/6 male mice, respectively. Cells were injected as follows: parental SW1 cells for FIG. 13A; parental SM1 cells for FIG. 13E; SW1 cells stably expressing either empty vector (EV) or mouse fucose kinase (mFuk) for FIG. 1L; and parental SW1 cells for FIG. 13M. FTY720 was administered at 20 μg every 2 days starting on Day 12, just prior to the initiation of LF, until endpoint.",
  "data": [
    {"smiles": "CCCCCCCCc1ccc(CCC(N)(CO)CO)cc1", "note": "[FTY720, reference compound]", "values": [
      {"measurement": "CD4 central memory, average # of cells", "setting": "Day 28, lymph nodes", "value": "1362.38 per 10^6 cells of total tumor"},
      {"measurement": "CD4 effector memory, average # of cells", "setting": "Day 28, lymph nodes", "value": "372.53 per 10^6 cells of total tumor"},
      {"measurement": "CD4 naïve, average # of cells", "setting": "Day 28, lymph nodes", "value": "20717.91 per 10^6 cells of total tumor"},
      {"measurement": "CD4 stem central memory, average # of cells", "setting": "Day 28, lymph nodes", "value": "24893.27 per 10^6 cells of total tumor"},
      {"measurement": "CD8 central memory, average # of cells", "setting": "Day 28, lymph nodes", "value": "85.45 per 10^6 cells of total tumor"},
      {"measurement": "CD8 effector memory, average # of cells", "setting": "Day 28, lymph nodes", "value": "421.08 per 10^6 cells of total tumor"},
      {"measurement": "CD8 naïve, average # of cells", "setting": "Day 28, lymph nodes", "value": "6153.14 per 10^6 cells of total tumor"},
      {"measurement": "CD8 stem central memory, average # of cells", "setting": "Day 28, lymph nodes", "value": "311.59 per 10^6 cells of total tumor"},
      {"measurement": "cDC1, average # of cells", "setting": "Day 28, lymph nodes", "value": "147.79 per 10^6 cells of total tumor"},
      {"measurement": "cDC2, average # of cells", "setting": "Day 28, lymph nodes", "value": "448.71 per 10^6 cells of total tumor"},
      {"measurement": "moDC, average # of cells", "setting": "Day 28, lymph nodes", "value": "41.74 per 10^6 cells of total tumor"},
      {"measurement": "CD4 central memory, average # of cells", "setting": "Day 28, tumors", "value": "11.56 per 10^6 cells of total tumor"},
      {"measurement": "CD4 effector memory, average # of cells", "setting": "Day 28, tumors", "value": "336.07 per 10^6 cells of total tumor"},
      {"measurement": "CD4 naïve, average # of cells", "setting": "Day 28, tumors", "value": "60.03 per 10^6 cells of total tumor"},
      {"measurement": "CD4 stem central memory, average # of cells", "setting": "Day 28, tumors", "value": "0.87 per 10^6 cells of total tumor"},
      {"measurement": "CD8 central memory, average # of cells", "setting": "Day 28, tumors", "value": "1.22 per 10^6 cells of total tumor"},
      {"measurement": "CD8 effector memory, average # of cells", "setting": "Day 28, tumors", "value": "54.02 per 10^6 cells of total tumor"},
      {"measurement": "CD8 naïve, average # of cells", "setting": "Day 28, tumors", "value": "24.54 per 10^6 cells of total tumor"},
      {"measurement": "CD8 stem central memory, average # of cells", "setting": "Day 28, tumors", "value": "0.00 per 10^6 cells of total tumor"},
      {"measurement": "cDC1, average # of cells", "setting": "Day 28, tumors", "value": "463.94 per 10^6 cells of total tumor"},
      {"measurement": "cDC2, average # of cells", "setting": "Day 28, tumors", "value": "8181.08 per 10^6 cells of total tumor"},
      {"measurement": "moDC, average # of cells", "setting": "Day 28, tumors", "value": "7526.28 per 10^6 cells of total tumor"},
      {"measurement": "CD4 central memory, average # of cells", "setting": "Day 42, lymph nodes", "value": "949.35 per 10^6 cells of total tumor"},
      {"measurement": "CD4 effector memory, average # of cells", "setting": "Day 42, lymph nodes", "value": "3499.07 per 10^6 cells of total tumor"},
      {"measurement": "CD4 naïve, average # of cells", "setting": "Day 42, lymph nodes", "value": "65491.17 per 10^6 cells of total tumor"},
      {"measurement": "CD4 stem central memory, average # of cells", "setting": "Day 42, lymph nodes", "value": "742.12 per 10^6 cells of total tumor"},
      {"measurement": "CD8 central memory, average # of cells", "setting": "Day 42, lymph nodes", "value": "949.35 per 10^6 cells of total tumor"},
      {"measurement": "CD8 effector memory, average # of cells", "setting": "Day 42, lymph nodes", "value": "3499.07 per 10^6 cells of total tumor"},
      {"measurement": "CD8 naïve, average # of cells", "setting": "Day 42, lymph nodes", "value": "65491.17 per 10^6 cells of total tumor"},
      {"measurement": "CD8 stem central memory, average # of cells", "setting": "Day 42, lymph nodes", "value": "742.12 per 10^6 cells of total tumor"},
      {"measurement": "cDC1, average # of cells", "setting": "Day 42, lymph nodes", "value": "1731.49 per 10^6 cells of total tumor"},
      {"measurement": "cDC2, average # of cells", "setting": "Day 42, lymph nodes", "value": "3881.72 per 10^6 cells of total tumor"},
      {"measurement": "moDC, average # of cells", "setting": "Day 42, lymph nodes", "value": "1219.26 per 10^6 cells of total tumor"},
      {"measurement": "CD4 central memory, average # of cells", "setting": "Day 42, tumors", "value": "32.54 per 10^6 cells of total tumor"},
      {"measurement": "CD4 effector memory, average # of cells", "setting": "Day 42, tumors", "value": "160.89 per 10^6 cells of total tumor"},
      {"measurement": "CD4 naïve, average # of cells", "setting": "Day 42, tumors", "value": "44.22 per 10^6 cells of total tumor"},
      {"measurement": "CD4 stem central memory, average # of cells", "setting": "Day 42, tumors", "value": "18.52 per 10^6 cells of total tumor"},
      {"measurement": "CD8 central memory, average # of cells", "setting": "Day 42, tumors", "value": "5.73 per 10^6 cells of total tumor"},
      {"measurement": "CD8 effector memory, average # of cells", "setting": "Day 42, tumors", "value": "220.02 per 10^6 cells of total tumor"},
      {"measurement": "CD8 naïve, average # of cells", "setting": "Day 42, tumors", "value": "19.42 per 10^6 cells of total tumor"},
      {"measurement": "CD8 stem central memory, average # of cells", "setting": "Day 42, tumors", "value": "0.00 per 10^6 cells of total tumor"},
      {"measurement": "cDC1, average # of cells", "setting": "Day 42, tumors", "value": "607.65 per 10^6 cells of total tumor"},
      {"measurement": "cDC2, average # of cells", "setting": "Day 42, tumors", "value": "279.84 per 10^6 cells of total tumor"},
      {"measurement": "moDC, average # of cells", "setting": "Day 42, tumors", "value": "197.56 per 10^6 cells of total tumor"},
      {"measurement": "intratumoral CD4+T central and effector memory subpopulations", "setting": "FIG. 15c", "value": "abrogated"}
    ]}
  ]
}
